Results on 20 compounds are retold here after ChEMBL document CHEMBL1128550, “Nonclassical 2,4-diamino-6-(aminomethyl)-5,6,7,8-tetrahydroquinazoline antifolates: synthesis and biological activities” (J Med Chem, 1995).

For experiment [1], the target named is T1, Bifunctional dihydrofolate reductase-thymidylate synthase (Toxoplasma gondii, UniProt Q07422).
T1 sequence (Q07422 whole entry): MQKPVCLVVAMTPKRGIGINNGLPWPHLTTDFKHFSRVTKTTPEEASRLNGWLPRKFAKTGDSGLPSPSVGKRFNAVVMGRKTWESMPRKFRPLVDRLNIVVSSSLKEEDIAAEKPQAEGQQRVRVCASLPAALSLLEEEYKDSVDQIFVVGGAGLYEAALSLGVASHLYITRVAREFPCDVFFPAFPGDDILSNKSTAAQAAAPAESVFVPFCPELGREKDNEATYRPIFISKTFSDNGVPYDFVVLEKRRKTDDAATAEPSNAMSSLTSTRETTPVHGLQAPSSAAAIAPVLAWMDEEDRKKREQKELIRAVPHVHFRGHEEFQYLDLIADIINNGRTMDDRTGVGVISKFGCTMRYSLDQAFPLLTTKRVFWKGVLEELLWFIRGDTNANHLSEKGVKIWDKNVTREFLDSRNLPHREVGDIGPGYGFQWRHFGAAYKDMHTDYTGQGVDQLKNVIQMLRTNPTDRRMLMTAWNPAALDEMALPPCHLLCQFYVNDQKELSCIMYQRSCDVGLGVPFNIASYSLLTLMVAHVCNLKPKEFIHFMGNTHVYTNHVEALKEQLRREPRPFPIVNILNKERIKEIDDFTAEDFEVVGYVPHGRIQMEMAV
Briefly: Inhibitory activity against purified Dihydrofolate reductase from Toxoplasma gondii.

Experiment [2] addresses T2, Dihydrofolate reductase (Rattus norvegicus, UniProt Q920D2).
T2 sequence (Q920D2 whole entry): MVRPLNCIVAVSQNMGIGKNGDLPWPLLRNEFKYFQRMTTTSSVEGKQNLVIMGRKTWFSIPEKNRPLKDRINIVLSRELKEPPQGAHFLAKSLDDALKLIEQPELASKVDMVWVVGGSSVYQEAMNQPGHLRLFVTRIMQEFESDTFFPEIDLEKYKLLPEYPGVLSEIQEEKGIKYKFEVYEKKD
Briefly: Inhibitory activity against purified dihydrofolate reductase from rat.

The target of experiment [3] is T3, Dihydrofolate reductase (Pneumocystis carinii, UniProt P16184).
T3 sequence (P16184 whole entry): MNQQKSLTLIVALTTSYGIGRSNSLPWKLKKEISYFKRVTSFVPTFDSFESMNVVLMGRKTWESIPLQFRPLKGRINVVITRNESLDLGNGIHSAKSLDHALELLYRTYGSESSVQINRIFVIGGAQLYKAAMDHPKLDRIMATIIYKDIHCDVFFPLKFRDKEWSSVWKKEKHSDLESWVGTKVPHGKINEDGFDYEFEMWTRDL
Briefly: Inhibitory activity against purified dihydrofolate reductase from Pneumocystis carinii.

Another experiment relates to K562. Kind of experiment: In vitro activity of compound against leukemia K-562 cell line. The experiment is classed as functional, Homo sapiens.
The target of experiment [4] is T3, Dihydrofolate reductase.
Description: Inhibitory activity against purified DHFR (Dihydrofolate reductase) from Pneumocystis carinii.
Experiment [5] concerns the target T2, Dihydrofolate reductase.
Description: Inhibitory activity against purified DHFR (Dihydrofolate reductase) from rat
The target in experiment [6] is T1, Bifunctional dihydrofolate reductase-thymidylate synthase. Briefly: Inhibitory activity against purified DHFR (Dihydrofolate reductase) from Toxoplasma gondii.
Another experiment deals with NCI-H460. Kind of experiment: In vitro activity of compound against non-small cell lung cancer NCI-H460. The class given is functional. To be noted: Homo sapiens.
For experiment [7], the target named is T1, Bifunctional dihydrofolate reductase-thymidylate synthase. Kind of experiment: Inhibitory activity against purified DHFR (Dihydrofolate reductase) from Toxoplasma gondii.

Usually IC50 stands for the concentration at which inhibition is half-maximal. High values mean a need for much substance, low ones inhibition by little substance. Regarding `COc1ccc(OC)c(NCC2CCc3nc(N)nc(N)c3C2)c1` (stereo not given), the IC50 in [1] stood at 181 nM; on Dihydrofolate reductase [2] it was 560 nM; against Dihydrofolate reductase [3], 1670 nM.

For `C#CCN(CC1CCc2nc(N)nc(N)c2C1)c1cc(OC)c(OC)c(OC)c1` (stereo not given), the IC50 in experiment [1] was found to be 12 nM; against Dihydrofolate reductase [2], 74 nM; against Dihydrofolate reductase [3], 119 nM.

As usually defined, the GI50 is the concentration at which growth is held to half of that of the control. A high value points to lower sensitivity of the cells. As for `CN(CC1CCc2nc(N)nc(N)c2C1)c1cccc2ccccc12` (stereo not given), the IC50 is 23 nM in experiment [1], 47 nM against Dihydrofolate reductase [2] and 100 nM against Dihydrofolate reductase [3]. The same compound returned a GI50 with K562 of 40 nM.

Consider `COc1cc(CN(C)CC2CCc3nc(N)nc(N)c3C2)cc(OC)c1OC` (stereo not given), for which the IC50 at Dihydrofolate reductase [4] worked out at 3100 nM; against Dihydrofolate reductase [5] it was 1630 nM; in experiment [6], 330 nM.

For the compound `COc1cc(NCC2CCc3nc(N)nc(N)c3C2)cc(OC)c1OC` (stereo not given), the IC50 on Dihydrofolate reductase [5] was 290 nM; in [6], 54 nM.

`CN(CC1CCc2nc(N)nc(N)c2C1)c1ccc(Cl)cc1` (stereo not given): the values for the IC50 (in experiment [1]; against Dihydrofolate reductase [2]; against Dihydrofolate reductase [3]) were 22 nM, 67 nM and 171 nM, respectively.

With `CCOc1ccc(OCC)c(NCC2CCc3nc(N)nc(N)c3C2)c1` (stereo not given), the figures for the IC50 (against Dihydrofolate reductase [4]; on Dihydrofolate reductase [5]; in experiment [6]) were 1570 nM, 1470 nM and 140 nM, respectively.

Consider `Nc1nc(N)c2c(n1)CCC(CNc1cccc(Br)c1)C2` (stereo not given), for which the IC50 in [1] was 30 nM; against Dihydrofolate reductase [2] it was 227 nM; against Dihydrofolate reductase [3], 330 nM.

For the compound `Nc1nc(N)c2c(n1)CCC(CNc1ccc(Cl)cc1)C2` (stereo not given), the values for the IC50 (at Dihydrofolate reductase [4]; on Dihydrofolate reductase [5]; in experiment [6]) were 940 nM, 128 nM and 78 nM, respectively.

As to `Nc1nc(N)c2c(n1)CCC(CNc1ccc(Cl)c(Cl)c1)C2` (stereo not given), the IC50 in experiment [1] amounted to 110 nM; at Dihydrofolate reductase [2], 150 nM; against Dihydrofolate reductase [3], 6800 nM.

In turn, `Nc1nc(N)c2c(n1)CCC(CNc1cccc3ccccc13)C2` (stereo not given) came in with a GI50 in the experiment with NCI-H460 of 50 nM. Further, the results for the IC50 (on Dihydrofolate reductase [4]; against Dihydrofolate reductase [5]; in experiment [7]) were 517 nM, 139 nM and 36 nM, respectively.

With `CN(CC1CCc2nc(N)nc(N)c2C1)c1ccc(Cl)c(Cl)c1` (stereo not given), the IC50 in experiment [1] came out at 21 nM; on Dihydrofolate reductase [2] it was 34 nM; against Dihydrofolate reductase [3] it was 246 nM.

For the compound `COc1cc(CNCC2CCc3nc(N)nc(N)c3C2)cc(OC)c1OC` (stereo not given), the IC50 against Dihydrofolate reductase [2] turned out to be 12700 nM; on Dihydrofolate reductase [3], 18500 nM.

Consider `CCN(CC1CCc2nc(N)nc(N)c2C1)c1cc(OC)ccc1OC` (stereo not given), for which the IC50 in experiment [1] is 17 nM; against Dihydrofolate reductase [2], 71 nM; at Dihydrofolate reductase [3], 114 nM.

Regarding `Nc1nc(N)c2c(n1)CCC(CNc1cc(Cl)ccc1Cl)C2` (stereo not given), the figures for the 50% inhibitory concentration (IC50) (against Dihydrofolate reductase [4]; on Dihydrofolate reductase [5]; in experiment [6]) were 410 nM, 240 nM and 97 nM, respectively.

With `Nc1nc(N)c2c(n1)CCC(CNc1c(Cl)cccc1Cl)C2` (stereo not given), the half-maximal inhibitory concentration (IC50) came out at 502 nM against Dihydrofolate reductase [4], 109 nM against Dihydrofolate reductase [5] and 9.9 nM in experiment [6].

In the case of `COc1cc(N(C)CC2CCc3nc(N)nc(N)c3C2)cc(OC)c1OC` (stereo not given), the figures for the IC50 (in experiment [1]; against Dihydrofolate reductase [2]; on Dihydrofolate reductase [3]) were 7 nM, 38 nM and 95 nM, respectively.

In the case of `CCOc1ccc(OCC)c(N(C)CC2CCc3nc(N)nc(N)c3C2)c1` (stereo not given), the IC50 in [1] was 17 nM; on Dihydrofolate reductase [2] it was 116 nM; against Dihydrofolate reductase [3] it was 319 nM.

Turning to `COc1ccc(OC)c(N(C)CC2CCc3nc(N)nc(N)c3C2)c1` (stereo not given), the values for the IC50 (in experiment [1]; on Dihydrofolate reductase [2]; against Dihydrofolate reductase [3]) were 15 nM, 260 nM and 300 nM, respectively.

As to `Nc1nc(N)c2c(n1)CCC(CN1CCc3ccccc31)C2` (stereo not given), the results for the IC50 (against Dihydrofolate reductase [4]; at Dihydrofolate reductase [5]; in experiment [6]) were 210 nM, 160 nM and 27 nM, respectively.
